How the values were obtained:
Type in all cases: cell-based, human
[1] = system: THP-1 cells; test: IL-1ß stimulated CXCL8 release by THP-1 cells; details: IL-1ß 2 ng/ml, overnight (FIG. 3C)
Procedure: (§1) THP-1 cells (10^5 cells/200 μL/well) and RA FLS (104/200 μL/well) were plated in 96 well plates and pre-treated with compound or vehicle for 1 h and then stimulated with either LPS (10 ng/ml), 1L-1ß (2 ng/ml) or TNF (2 ng/ml for THP-1 and 1 ng/ml for RA FLS). After 18 h of incubation, supernatants were collected and the levels of cytokines and chemokines in the culture supernatants were measured by ELISA according to the manufacturer's protocols (R&D systems, Minneapolis, MN).
The lead compounds belonging to chemotypes 1, 3, and 5 were tested for potency in suppressing chemokine and cytokine production by THP-1 cells in the presence of different inflammatory stimuli. The production of CXCL8 induced by either LPS (10 ng/ml), IL-1ß (2 ng/ml), or TNF (2 ng/ml) and TNF induced by IL-1ß (2 ng/ml) was assessed using serially diluted compounds. The compounds except 1-2 reduced the level of CXCL8 production stimulated by LPS in a dose dependent manner (FIG. 3A). However, the compounds from chemotype 5 enhanced CXCL8 release by THP-1 cells when stimulated with IL-111, or TNF (FIGS. 3B, C). […] The 1Cs0 for 1-1, 1-2 and 3-1 for IL-1ß stimulated CXCL8 release included 400, 1770, and 2020 nM, respectively, (FIG. 3C).

[2] = system: RA FLS; test: Chemokine and cytokine production by TNF stimulated RA FLS
Excerpt: Rheumatoid arthritis fibroblast-like synoviocytes (RA FLS) were isolated from synovial tissues derived from patients with RA when they underwent joint replacement surgery or synovectomy. Patients were age ≥18 years with active RA based on the ACR 1987 Revised Criteria and consent forms were completed by the patients before surgery. The study protocol was approved by the institutional review board at TokyoMedical andDental University, Tokyo, Japan and are in accordance with the principles of the Declaration of Helsinki. RA FLS were cultured in DMEM supplemented with 10% FBS, 100 U/mL penicillin, and 100 μg/mL streptomycin in a humidified 5% CO2 incubator. All experiments used proliferating RA FLS.
as §1
(§2) In the pathogenesis of rheumatoid arthritis, fibroblast-like synoviocytes (RA FLS) are a primary source of inflammatory cytokines and chemokines in inflamed joints. The immunomodulatory effects and cytotoxicity of compound 1-1 on RA FLS was analyzed. […] To assess the synergistic effect of compound 1-1 with DEX in RA FLS, IL-6 and CXCL8 suppression was analyzed by co-titrating DEX and compound 1-1 in cultures with TNF stimulated RA FLS (FIG. 7A, B).

[3] = system: RA FLS; test: Synergy of compound 1-1 with DEX in TNF stimulated RA FLS (isobologram)
Procedure: Drug synergy analysis was performed using lsobologram plots which were calculated according to reported procedures to compute IC50 and determine synergism. IC50 is computed from the median effect equation. Synergism analysis is carried out using the Combination index (Cl)-isobol method. Data analysis was performed using the CompuSyn software available on combisyn.com, Detailed methodology was used as described in a prior report. […] This is followed by Cl-isobol method to quantitatively assess the synergism between these inhibitor drugs. […] From the median effect equation, the estimated dose (i.e., D) necessary to produce the inhibition (i.e., Fa, Fu) obtained by the combination was calculated. […]
as §2

## Cc1ccc(-n2ncc3c(NC4CCCCC4)ncnc32)c(C)c1 [Compound 1-1]
[1]
  IC50: 0.4 µM
[2]; TNF 1 ng/ml overnight
  CCL2 production induced by TNF: dose-dependently suppressed
  CXCL1 production induced by TNF: dose-dependently suppressed
  CXCL8 production induced by TNF: dose-dependently suppressed
  IL-6 production induced by TNF: dose-dependently suppressed
  MMP-3 production induced by TNF: not
[2]; comparable to that in THP-1
  IC50 in RA FLS: micromolar level
[3]; isobologram (FIG. 7C)
  Synergistic effect with DEX, CXCL8 release: synergistic effects
[3]; isobologram (FIG. 7D)
  Synergistic effect with DEX, IL-6 release: synergistic effects

Reference: patent US20230365570A1, “COMPOUNDS WITH GLUCOCORTICOID SPARING EFFECTS AND USES THEREOF” (The Regents of the University of California, priority 2020, published 2023)
